Target: Angiotensin-converting enzyme (Bos taurus) (UniProt P12820)
Test: Inhibitory activity against Angiotensin I converting enzyme (ACE) from bovine kidney

Sequence of Angiotensin-converting enzyme (Bos taurus) (P12820 whole entry, looked up): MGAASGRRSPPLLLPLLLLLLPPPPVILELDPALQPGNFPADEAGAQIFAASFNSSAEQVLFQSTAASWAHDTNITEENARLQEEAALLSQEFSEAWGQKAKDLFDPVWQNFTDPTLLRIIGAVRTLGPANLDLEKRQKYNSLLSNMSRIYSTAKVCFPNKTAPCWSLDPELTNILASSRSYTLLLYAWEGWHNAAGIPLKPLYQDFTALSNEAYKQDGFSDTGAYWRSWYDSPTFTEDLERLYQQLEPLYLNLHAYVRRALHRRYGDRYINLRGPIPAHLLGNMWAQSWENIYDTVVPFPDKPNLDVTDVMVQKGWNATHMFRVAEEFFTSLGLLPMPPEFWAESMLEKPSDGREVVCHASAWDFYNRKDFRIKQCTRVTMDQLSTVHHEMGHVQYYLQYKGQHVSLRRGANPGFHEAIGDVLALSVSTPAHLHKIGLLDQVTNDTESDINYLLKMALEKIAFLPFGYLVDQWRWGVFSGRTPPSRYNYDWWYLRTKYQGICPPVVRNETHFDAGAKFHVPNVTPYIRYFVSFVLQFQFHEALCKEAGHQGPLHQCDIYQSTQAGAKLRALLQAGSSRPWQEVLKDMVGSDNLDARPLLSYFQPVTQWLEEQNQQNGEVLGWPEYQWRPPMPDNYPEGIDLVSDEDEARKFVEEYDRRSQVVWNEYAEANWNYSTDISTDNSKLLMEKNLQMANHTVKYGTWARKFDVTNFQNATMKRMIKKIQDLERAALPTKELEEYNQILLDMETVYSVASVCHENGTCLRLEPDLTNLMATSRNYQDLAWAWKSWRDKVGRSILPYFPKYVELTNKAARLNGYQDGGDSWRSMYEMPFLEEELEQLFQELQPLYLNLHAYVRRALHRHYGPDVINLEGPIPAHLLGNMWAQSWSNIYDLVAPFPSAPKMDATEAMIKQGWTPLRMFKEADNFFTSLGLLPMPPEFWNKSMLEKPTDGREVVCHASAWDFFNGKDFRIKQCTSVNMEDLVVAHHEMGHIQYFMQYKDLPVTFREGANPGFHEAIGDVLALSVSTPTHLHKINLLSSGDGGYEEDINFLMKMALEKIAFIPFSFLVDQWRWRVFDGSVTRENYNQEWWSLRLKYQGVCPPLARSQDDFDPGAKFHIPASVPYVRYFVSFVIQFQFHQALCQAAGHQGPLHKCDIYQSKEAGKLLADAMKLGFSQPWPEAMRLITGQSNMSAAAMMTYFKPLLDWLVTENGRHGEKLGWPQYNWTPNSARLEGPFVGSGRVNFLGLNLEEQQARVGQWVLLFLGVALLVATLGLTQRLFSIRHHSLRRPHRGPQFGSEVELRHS

IC50 [nM] | SMILES
1 | CC1CCCC(C(=O)O)N1C(=O)CCS (stereo not drawn) [1-(3-Mercapto-propionyl)-6-methyl-piperidine-2-carboxylic acid]
500000 | CC(=O)SCC(C)C(=O)NCc1ccccc1 (stereo not drawn) [Thioacetic acid S-(2-benzylcarbamoyl-propyl) ester]
300 | CC(=O)SCC(C)C(=O)Nc1ccccc1 (stereo not drawn) [Thioacetic acid S-(2-phenylcarbamoyl-propyl) ester]

Source: BindingDB's records for doi:10.1021/jm021089h (Institute of Biomedical Chemistry of Russian Academy of …, 2003)
